± gives the standard deviation of the averaged measurements.
Legend:
Assay in all cases: level (log10 ratio to DMSO vehicle control); higher = higher biomarker level / cell amount than vehicle control
[1] = compound: NS(=O)(=O)C(F)(F)C(F)(F)C(F)(F)C(F)(F)C(F)(F)C(F)(F)C(F)(F)C(F)(F)F [Perfluorooctanesulfonamide] (in DMSO)
Description: (§1)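 BioMAP Diversity Plus panel of 12 human primary cell co-culture systems (3C, 4H, LPS, SAg, BT, BF4T, BE3C, CASM3C, HDF3CGF, KF3CT, MyoF, Mphg). Compounds were added 1 h before stimulation and left for 24 h (MyoF 48 h; BT 72 h for soluble read-outs or 6 d for IgG). Biomarkers were read by ELISA, cytotoxicity by SRB, PBMC viability and proliferation by Alamar Blue. Each well value was divided by the mean of 8 DMSO control wells on the same plate and log10 transformed; duplicate blinded samples were tested at 4 concentrations.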

[2] = compound: CCOC(=O)CC(=O)C(F)(F)C(F)(F)F [Ethyl pentafluoropropionyl acetate] (in DMSO)
Description: as §1

[3] = compound: CN(C(=O)C(F)(F)C(F)(F)C(F)(F)F)[Si](C)(C)C [N-Methyl-N-trimethylsilylheptafluorobutyramide] (in DMSO)
Description: as §1

[4] = compound: O=S(=O)(O)CCC(F)(F)C(F)(F)C(F)(F)C(F)(F)C(F)(F)C(F)(F)C(F)(F)C(F)(F)F [8:2 Fluorotelomer sulfonic acid] (in DMSO)
Description: as §1

[5] = compound: O=C(O)C=C(C(F)(F)F)C(F)(F)F [3,3-Bis(trifluoromethyl)-2-propenoic acid] (in DMSO)
Description: as §1

[6] = compound: O=C(O)C(F)(F)OC(F)(F)C(F)(F)OC(F)(F)C(F)(F)OC(F)(F)C(F)(F)C(F)(F)C(F)(F)F [Perfluoro-3,6,9-trioxatridecanoic acid] (in DMSO); settings: 6700 nM
Description: as §1

[7] = compound: O=S(=O)(O)C(F)(F)C(F)(F)OC(F)(F)C(F)(F)F [Perfluoro(2-ethoxyethane)sulfonic acid] (in DMSO)
Description: as §1

Test System	level (log10) ([1]; 6700 nM)	level (log10) ([1]; 20000 nM)	level (log10) ([2]; 6700 nM)	level (log10) ([2]; 20000 nM)	level (log10) ([2]; 60000 nM)	level (log10) ([3]; 6700 nM)	level (log10) ([3]; 20000 nM)	level (log10) ([3]; 60000 nM)	level (log10) ([4]; 6700 nM)	level (log10) ([4]; 20000 nM)	level (log10) ([4]; 60000 nM)	level (log10) ([5]; 6700 nM)	level (log10) ([5]; 20000 nM)	level (log10) ([5]; 60000 nM)	level (log10) [6]	level (log10) ([7]; 6700 nM)	level (log10) ([7]; 20000 nM)	level (log10) ([7]; 60000 nM)
BF4T:SRB	-0.009 ± 0.0028	-0.052	-0.004	-0.0045 ± 0.0035	-0.002 ± 0.0057	-0.0055 ± 0.00071	-0.003 ± 0.0042	-0.0005 ± 0.00071	0.0035 ± 0.015	-0.002 ± 0.013	-0.0005 ± 0.0078	0.0015 ± 0.005	-0.006 ± 0.011	0.0045 ± 0.0092	-0.038 ± 0.013	0.0045 ± 0.015	0.001 ± 0.0099	0.004 ± 0.018
BF4T:CCL26/Eotaxin-3	-0.117 ± 0.017	-0.169 ± 0.014	0.014 ± 0.0014	0.003 ± 0.014	0.0015 ± 0.03	-0.0025 ± 0.035	-0.0135 ± 0.015	0.0045 ± 0.0078	-0.0635 ± 0.05	-0.179 ± 0.05	-0.203 ± 0.0099	-0.089 ± 0.03	-0.124 ± 0.0014	-0.126 ± 0.067	-0.395 ± 0.018	0.019 ± 0.0014	-0.0075 ± 0.00071	0.039 ± 0.038
BT:sTNF-alpha	-0.045 ± 0.13	-0.11 ± 0.15	-0.124 ± 0.17	0.017 ± 0.072	-0.0495 ± 0.07	-0.014 ± 0.062	-0.0875 ± 0.054	0.079 ± 0.13	0.006 ± 0.095	0 ± 0.0071	0.009 ± 0.034	-0.047 ± 0.034	-0.184 ± 0.04	-0.637 ± 0.093	-0.0035 ± 0.057	-0.002 ± 0.037	-0.012 ± 0.083	0.029 ± 0.058
LPS:sPGE2	0.07 ± 0.011	0.0945 ± 0.012	0.0175 ± 0.012	-0.0005 ± 0.013	0.034 ± 0.0014	0.0035 ± 0.011	0.0095 ± 0.044	-0.023 ± 0.057	-0.0245 ± 0.0035	-0.078 ± 0.047	-0.293 ± 0.017	-0.0855 ± 0.016	-0.09 ± 0.021	-0.106 ± 0.016	-0.0245 ± 0.013	0 ± 0.028	-0.0545 ± 0.03	-0.001 ± 0.011
BE3C:CXCL10/IP-10	-0.142 ± 0.0078	-0.414 ± 0.0028	-0.004 ± 0.011	-0.013 ± 0.0028	-0.008 ± 0.0042	-0.006 ± 0.0028	0.005 ± 0.0014	0.007 ± 0.011	-0.0205 ± 0.012	-0.122 ± 0.019	-0.237 ± 0.02	-0.022 ± 0.027	-0.0195 ± 0.026	-0.0295 ± 0.00071	-1.1 ± 0.023	-0.008 ± 0.02	-0.024 ± 0.033	-0.01 ± 0.0071
BF4T:MMP-3	0.004 ± 0.024	0.0845 ± 0.028	0.0105 ± 0.029	-0.012 ± 0.047	-0.0025 ± 0.052	-0.016 ± 0.031	-0.008 ± 0.011	0 ± 0.017	-0.0095 ± 0.043	0.027 ± 0.034	0.0755 ± 0.0078	-0.0165 ± 0.00071	-0.0105 ± 0.0064	0.0205 ± 0.037	-0.0415 ± 0.064	0.0015 ± 0.0064	0.0105 ± 0.023	0.0805 ± 0.067
4H:CD87/uPAR	0.0155 ± 0.0064	-0.026 ± 0.028	-0.0055 ± 0.0064	-0.0585 ± 0.07	-0.0565 ± 0.13	0.011 ± 0.021	0.0135 ± 0.016	0.0055 ± 0.019	0.026 ± 0.0028	-0.01 ± 0.023	-0.0345 ± 0.015	-0.053 ± 0.038	-0.0455 ± 0.037	-0.025 ± 0.062	0.0145 ± 0.03	0.017 ± 0.062	0.0005 ± 0.049	0.0065 ± 0.059
SAg:CXCL8/IL-8	-0.0015 ± 0.005	-0.0505 ± 0.03	-0.023 ± 0.016	-0.0475 ± 0.032	-0.007 ± 0.085	-0.0015 ± 0.018	-0.0385 ± 0.019	-0.007 ± 0.035	-0.0075 ± 0.076	-0.009 ± 0.014	0.071 ± 0.044	-0.0225 ± 0.025	-0.101 ± 0.023	-0.227 ± 0.084	-0.023 ± 0.011	0.0225 ± 0.057	0.0465 ± 0.016	0.0945 ± 0.0035

Reference: the supplement of paper PMC10331698
